“And” between values parts separate entries of the source, which are not always exact repeats. Identical values can stand only once.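 Interpolation was linear, between the two tested concentrations surrounding the appropriate level; five concentrations were tested over 48 hours in 96-well plates. The concentration for 50% growth inhibition is given as GI50. The concentration for full growth arrest is given as TGI.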
What was measured:
Assay in all cases: NCI tumour cell line growth inhibition, 48 h
HOP-62 NSCLC = system: HOP-62 NSCLC
SR leukemia = system: SR leukemia
HCT-116 colon = system: HCT-116 colon
SK-MEL-5 melanoma = system: SK-MEL-5 melanoma
MOLT-4 leukemia = system: MOLT-4 leukemia
UO-31 renal = system: UO-31 renal
SF-295 CNS = system: SF-295 CNS
BT-549 breast = system: BT-549 breast
SK-OV-3 ovarian = system: SK-OV-3 ovarian

Row | SMILES | TGI (HOP-62 NSCLC) | TGI (SR leukemia) | TGI (HCT-116 colon) | TGI (SK-MEL-5 melanoma) | TGI (MOLT-4 leukemia) | TGI (UO-31 renal) | TGI (SF-295 CNS) | TGI (BT-549 breast) | GI50 (HOP-62 NSCLC) | GI50 (HCT-116 colon) | GI50 (SK-MEL-5 melanoma) | GI50 (MOLT-4 leukemia) | GI50 (UO-31 renal) | GI50 (SK-OV-3 ovarian) | TGI (SK-OV-3 ovarian) | GI50 (BT-549 breast) | GI50 (SF-295 CNS)
1 | COC(=O)NN(C(=O)OC)c1c(-c2ccccc2)nc(SC)n1N | > 100 µM | > 100 µM | > 100 µM | > 100 µM | > 100 µM | > 100 µM | > 100 µM | > 100 µM |  |  |  |  |  |  |  |  | 
2 | COc1ccc2c(c1)O/C(=C\c1cccc(OCC(=O)Nc3nc4c(s3)CCCC4)c1)C2=O | > 55.4 µM |  | > 100 µM | > 100 µM | 98.7 µM | 3.15 µM | > 43.2 µM | > 100 µM | > 34 µM | > 43.8 µM | > 71.8 µM | 4.5 µM | 1.69 µM | > 72.6 µM | > 100 µM | > 51.1 µM | 
3 | O=C1/C(=C/c2ccccc2S)N=C(c2ccccc2)N1c1nc2ccc(Sc3ccccc3)cc2[nH]1 | > 100 µM |  | > 100 µM | 38.6 µM | > 100 µM | > 100 µM | 72.5 µM | 61.1 µM |  |  |  |  |  |  | > 100 µM |  | 
4 | CN(C)c1ccc(-c2c(C#N)c(S)n(NS(=O)(=O)c3ccccc3)c(=O)c2C#N)cc1 |  | > 100 µM | > 100 µM | 72.2 µM | > 100 µM | 86.4 µM | > 100 µM | 61.7 µM |  |  |  |  |  |  | > 100 µM |  | 
5 | CCN(CC)CCNc1ccc2nnn3c4ccc(OC)cc4c(=O)c1c23 | 23.8 µM | 7.21 µM | 14.5 µM | 25.5 µM | 13.1 µM | 22.2 µM | 18.6 µM |  |  |  |  |  |  |  | 34.6 µM |  | 
6 | CC(C)(C)C1=Cc2cc3cc(C(C)(C)C)[nH]c(=O)c3cc2S(=O)(=O)N1 | 63 µM | 61.5 µM | 42.8 µM |  | 84.3 µM | 35.8 µM | 94.4 µM |  |  |  |  |  |  |  | > 100 µM |  | 
7 | Nc1nn2c(C(Br)Br)cc(C(Br)Br)nc2c1[N+](=O)[O-] |  |  | 2.23 µM | 3.06 µM | 1.21 µM | 2.5 µM | 4.46 µM | 2.09 µM |  |  |  |  |  |  | 12 µM |  | 
8 | CCCCN1CCN(c2ccc3nc(-c4ccc5nc(-c6ccc(C(F)(F)F)cc6)[nH]c5c4)[nH]c3c2)CC1 | 2.98 µM |  | 1.27 µM | 3.09 µM | 2.59 µM | 3.24 µM | 2.95 µM | 3.1 µM | 1.54 µM | 0.348 µM | 1.6 µM | 1.07 µM | 1.75 µM | 1.91 µM | 3.39 µM | 1.61 µM | 1.48 µM
9 | C=C1C(O)C2(O)OCC34C(CC5C(C)=CC(=O)C(O)C5(C)C23)OC(=O)C(OC(=O)C/C=C(\C)CCCCC)C14 (configuration not stated) |  |  |  | < 0.001 µM |  | 0.269 µM and 1.21 µM and 0.22 µM | 0.00567 µM and 0.0245 µM and 0.0174 µM |  | < 0.001 µM | < 0.001 µM | < 0.001 µM | < 0.001 µM | 0.0483 µM and 0.258 µM |  |  |  | 0.0013 µM
10 | Cc1cc2c(C)cc(=O)[nH]c2cc1N | > 100 µM | > 100 µM | > 100 µM | > 100 µM | > 100 µM | > 100 µM | > 100 µM | > 100 µM |  |  |  |  |  |  |  |  | 
11 | COC(=O)c1ccccc1/C=C1/Cc2ccccc2C1=O | > 100 µM | > 100 µM | 62.8 µM | 62.8 µM | 78.5 µM | > 100 µM | > 100 µM |  |  |  |  |  |  |  | > 100 µM |  | 

Reference: PubChem BioAssay (NCI)
